Measurements from patent US12233099B2, “Composition for promoting myogenesis, containing processed ginseng extract” (GREEN CROSS WELLBEING CORPORATION, priority 2018, dated 2025).

Key:
Assay type in all cases: cell-based, mouse
[1] = system: phosphorylated Smad2 (pSmad2); test: Smad2 phosphorylation in myostatin-treated myotubes (Western blotting); settings: myotubes treated with myostatin; extract 0, 10, 30, and 100 μg/ml
Description: The myotubes differentiated by the same method as in Test Example 5-2 were treated with myostatin and the processed ginseng extract of Example 2 to secure cells, and the cells were subjected to Western blotting. The treatment concentrations of the processed ginseng extract of Example 2 was 0, 10, 30, and 100 μg/ml. A lysis buffer was added to the secured cells to lyse cells, and then centrifugation was used to secure proteins of the supernatant. The secured proteins of the supernatant were separated through sodium dodecyl sulfate polyacrylamide gel electrophoresis (SDS-PAGE) and transferred to a polyvinylidene fluoride (PVDF) membrane. The membrane was blocked by a blocking solution, treated with a primary antibody in order to determine the amounts of Smad2 and phosphorylated Smad2 (pSmad2), and then treated with a secondary antibody to the primary antibody. Then, enhanced chemiluminescence (ECL, Amersham) was used to examine protein expression.

MyoD = MyoD expression in myostatin-treated myotubes (Western blotting); settings: extract 30 μg/ml
Description: (§1) The myotubes differentiated by the same method as in Test Example 5-2 were treated with myostatin and the processed ginseng extract of Example 2 to secure cells. The treatment concentrations of the processed ginseng extract of Example 2 was 30 μg/ml. The secured cells were subjected to Western blotting using antibodies corresponding to MyoD and MAFbx by the same method as in Test Example 6-1, and the results are shown in FIG. 8.

[2] = system: myotubes differentiated from C2C12; test: Myostatin-induced myoatrophy cell model (myotube breadth)
Description: After myotubes were differentiated by the same method as in the induction of myotube differentiation of Test Example 1, the cells were added in DMEM not containing FBS, and cultured for 3 hours. After culturing, the cells were treated with the myogenesis inhibitor myostatin (MSTN) at different concentrations for 24 hours, and the change in breadth of myotubes was measured in order to investigate whether myoatrophy was induced. The change in breadth of myotubes was measured by the same method as in Test Example 4, and after the immunofluorescent staining, images of myotubes were observed using the fluorescent substance attached to MHC through a microscope, and the Image J program was used to determine the breadth of myotubes.
To investigate the myoatrophy inhibitory effect of the processed ginseng extracts of the present invention, myoatrophy was induced by the same method as the construction method of myoatrophy animal cell models in Test Example 5-1, and then the change in myotube breadth was observed. The myotubes were treated with 0.4 μg/0 myostatin (MSTN) and 30 μg/0 the processed ginseng extract of Example 2 alone or in combination, and the myotubes not treated with myostatin and the processed ginseng extract of Example 2 were used as a control group.

MAFbx = MAFbx expression in myostatin-treated myotubes (Western blotting); settings: extract 30 μg/ml
Description: as §1

myostatin: myogenesis inhibitor protein of the TGF-β group, used to induce myotube atrophy
Smad2 phosphorylation (pSmad2) [1]: increased | MyoD expression (compared with GAPDH) (MyoD): reduction in MyoD expression | myotube breadth compared with the control group, treatment alone ([2]; 30 μg/0 Example 2 extract or 0.4 μg/0 myostatin alone): reduced | myostatin concentration giving greatest reduction in breadth of myotubes ([2]; 24 hours): 0.4 μg/0 | breadth of myotubes compared with myotubes not treated with myostatin ([2]; myostatin at different concentrations for 24 hours): reduced in breadth of myotubes with the increase of the treatment concentration | MAFbx expression (compared with GAPDH) (MAFbx): increase in MAFbx expression
